Laboratory results from patent EP2914280B1, “SOMATOSTATIN-DOPAMINE CHIMERIC ANALOGS” (IPSEN PHARMA S.A.S., priority 2012, dated 2014).

Columns and labels:
hSSTR4 = molecular target: T1, hSSTR4 (Homo sapiens, UniProt P31391); experiment: Somatostatin receptor radioligand binding assay (hSSTR4); details: CHO-K1 cell membranes; 0.05 nM [125I-Tyr11]-SRIF-14; 60 minutes at 25°C; read-out: hSSTR4 Ki (nM) ± SEM
T1 construct: expressed in transfected cells; host or cells: CHO-K1 (ATCC), pcDNA3.1, G418-selected clonal line; membranes
Description: (§1) The affinities of a test compound for the human somatostatin receptors were determined by radioligand binding assays in CHO-K1 cells stably transfected with each of the human somatostatin receptor subtypes, hSSTR1-5. The cDNA coding sequences of hSSTR1 (GenBank accession No. NM_001049.1), hSSTR2 (GenBank accession No. XM_012697.1), hSSTR3 (GenBank accession No. XM_009963.1), hSSTR4 (GenBank accession No. NM_001052.1), and hSSTR5 (GenBank accession No. XM_012565.1) were subcloned into the mammalian expression vector pcDNA3.1 (Life Technologies). Clonal cell lines stably expressing each of the somatostatin receptors were obtained by transfection into CHO-K1 cells (ATCC) and subsequently selected with culture media containing 0.8 mg/mL of G418 (Life Technologies).
(§2) Membranes for in vitro receptor binding assays were obtained by the following procedures. CHO-K1 cells expressing one of the somatostatin receptors were homogenized in ice-cold buffer with 10 mM Tris-HCl, 5 mM EDTA, 3 mM EGTA, 1 mM phenylmethylsuphonyl fluoride, pH 7.6, using Polytron PT10-35GT (Kinematica) at 18,000 rpm for 30 seconds and centrifuged at 500 x g for 10 minutes. The supernatant containing the plasma membranes was centrifuged at 100,000 x g for 30 minutes and the pellet was resuspended in buffer containing 20 mM glycine-glycine, 1 mM MgCl2, 250 mM sucrose, pH 7.2, for storage at -80°C.
(§3) For the hSSTR3 and 4 assays, membranes and various concentrations of test compounds were incubated in 96-well plates for 60 minutes at 25°C with 0.05 nM [^125I-Tyr^11]-SRIF-14 (PerkinElmer Life Science) in 50 mM HEPES, 0.2% BSA, 5 mM MgCl2, 200 KIU/mL trasylol, 0.02 mg/mL bacitracin, and 0.02 mg/mL phenylmethylsuphonyl fluoride, pH 7.5.
(§4) The incubations were terminated by rapid filtration through GF/C glass microfiber filter plates (pre-wet with 0.3% polyethyleneimine and 0.1 % BSA) using a 96-well cell harvester (Brandel). Plates were washed six times with 1 mL/well aliquots of ice-cold buffer containing 50 mM Tris buffer, pH 7.7. Specific binding was defined as the total radioligand bound minus the bound in the presence of 1000 nM SRIF-14.

hDRD2 [1] = molecular target: T2, hDRD2 (Homo sapiens, UniProt P14416); experiment: biochemical; format: binding; design: expressed in transfected cells; host or cells: CHO-K1, pcDNA3.1/GS, zeocin-selected clonal line; membranes; details: CHO-K1 cell membranes; […] [3H]-spiperone; 60 minutes at 25°C; read-out: hDRD2 Ki (nM) ± SEM
hSSTR5 = molecular target: T3, hSSTR5 (Homo sapiens, UniProt P35346); experiment: Somatostatin receptor radioligand binding assay (hSSTR5); details: CHO-K1 cell membranes; 0.05 nM [125I-Tyr]-[DPhe-cyclo(Cys-Tyr-DTrp-Lys-Val-Cys)-Thr-NH2]; 60 minutes at 25°C; read-out: hSSTR5 Ki (nM) ± SEM
T3 construct: expressed in transfected cells; host or cells: CHO-K1 (ATCC), pcDNA3.1, G418-selected clonal line; membranes
Description: (§5) The affinities of a test compound for the human somatostatin receptors were determined by radioligand binding assays in CHO-K1 cells stably transfected with each of the human somatostatin receptor subtypes, hSSTR1-5. […] Clonal cell lines stably expressing each of the somatostatin receptors were obtained by transfection into CHO-K1 cells (ATCC) and subsequently selected with culture media containing 0.8 mg/mL of G418 (Life Technologies).
(§6) Membranes for in vitro receptor binding assays were obtained by the following procedures. […] The supernatant containing the plasma membranes was centrifuged at 100,000 x g for 30 minutes and the pellet was resuspended in buffer containing 20 mM glycine-glycine, 1 mM MgCl2, 250 mM sucrose, pH 7.2, for storage at -80°C.
(§7) For the SSTR1, 2 and 5 assays, membranes and various concentrations of test compounds were incubated in 96-well plates for 60 minutes at 25°C with 0.05 nM [^125I-Tyr^11]-SRIF-14 (for hSSTR1; PerkinElmer Life Science), 0.05 nM [^125I-Tyr]-seglitide (for hSSTR2; PerkinElmer Life Science) or 0.05 nM [^125I-Tyr]-[DPhe-cyclo(Cys-Tyr-DTrp-Lys-Val-Cys)-Thr-NH2] (for hSSTR5; PerkinElmer Life Science) in 50 mM HEPES, 0.2% BSA, 0.1 mM MgCl2, pH 7.5.

hSSTR1 = molecular target: T4, hSSTR1 (Homo sapiens, UniProt P30872); experiment: Somatostatin receptor radioligand binding assay (hSSTR1); details: CHO-K1 cell membranes; 0.05 nM [125I-Tyr11]-SRIF-14; 60 minutes at 25°C; read-out: hSSTR1 Ki (nM) ± SEM
T4 construct: expressed in transfected cells; host or cells: CHO-K1 (ATCC), pcDNA3.1, G418-selected clonal line; membranes
Description: as §5, §6, §7

hDRD2 [2] = molecular target: T2, hDRD2; experiment: cell-based; design: host or cells: 'Cells expressing hDRD2'; details: read-out: hDRD2 %Emax ± SEM
Description: (§8) The ability of select compounds according to the present invention to activate hSSTR2 and hDRD2 was determined by the intracellular calcium mobilization assay using FLIPR Calcium 4 assay kit (Molecular Devices).
(§9) Cells expressing hSSTR2 or hDRD2 were plated in 384-well microplates in tissue culture media and incubated for 16-24 hours at 37°C in a humidified atmosphere with 5% CO2. Medium was replaced by loading buffer containing Hank's buffered saline, 20 mM HEPES, 2.5 mM probenecid and Calcium 4 dye, and the plates were incubated at 37°C for 60 minutes.

hSSTR2 [3] = molecular target: T5, hSSTR2 (Homo sapiens, UniProt P30874); experiment: Somatostatin receptor radioligand binding assay (hSSTR2); details: CHO-K1 cell membranes; 0.05 nM [125I-Tyr]-seglitide; 60 minutes at 25°C; read-out: hSSTR2 Ki (nM) ± SEM;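 also: radioligand displacement on membranes of CHO-K1 cells stably transfected with human SSTR2, specific binding taken as total minus binding left with 1000 nM SRIF-14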
T5 construct: host or cells: 'Cells expressing hSSTR2'
Description: as §5, §6, §7

hSSTR2 [4] = molecular target: T5, hSSTR2; experiment: Intracellular calcium mobilization assay (FLIPR Calcium 4), hSSTR2; format: cell-based; details: receptor not named;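 also: agonist activity measured in cells expressing hSSTR2, seeded in 384-well plates, loaded with Calcium 4 dye, read-out as rise in intracellular calcium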
Description: as §8, §9

[5] = system: pituitary tumor cells of acromegalic patients presenting with macroadenoma; experiment: Human pituitary adenoma cell growth hormone release assay; format: cell-based; details: incubated for 18 hours; Growth hormone levels in the medium by AlphaLISA; Figure 5
Description: • Figure 1 is a graph showing the Growth hormone suppressing activity of Compound 4 (see Table I hereinbelow for its chemical name and its corresponding structural representation) on pituitary tumor cells of acromegalic patients presenting with macroadenoma. Various concentrations of Compound 4 were added to the medium and the cells were incubated for 18 hours before measurement of Growth hormone levels in the medium using the AlphaLISA Growth Hormone Immunoassay Research kit (PerkinElmer). • Figure 2 is a graph showing the Growth hormone suppressing activity of Compounds 5 , 6, and 7 (see Table I hereinbelow for their chemical name and their corresponding structural representation) on pituitary tumor cells of acromegalic patients presenting with macroadenoma. Various concentrations of Compounds 5, 6, and 7 were added to the medium and the cells were incubated for 18 hours before measurement of Growth hormone levels in the medium using the AlphaLISA Growth Hormone Immunoassay Research kit (PerkinElmer). • Figure 3 is a graph showing the Growth hormone suppressing activity of Compounds 4, 6, 7, 8, and 9 (see Table I hereinbelow for their chemical name and their corresponding structural representation) on pituitary tumor cells of acromegalic patients presenting with macroadenoma. […]

hSSTR3 = molecular target: T6, hSSTR3 (Homo sapiens, UniProt P32745); experiment: Somatostatin receptor radioligand binding assay (hSSTR3); details: CHO-K1 cell membranes; 0.05 nM [125I-Tyr11]-SRIF-14; 60 minutes at 25°C; read-out: hSSTR3 Ki (nM) ± SEM
T6 construct: expressed in transfected cells; host or cells: CHO-K1 (ATCC), pcDNA3.1, G418-selected clonal line; membranes
Description: as §1, §2, §3, §4
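For Emax in this document: agonist activity at human DRD2 in DRD2-expressing cells, read as intracellular calcium mobilization with a FLIPR Calcium 4 fluorescent dye.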

T6 sequence (P32745 whole entry): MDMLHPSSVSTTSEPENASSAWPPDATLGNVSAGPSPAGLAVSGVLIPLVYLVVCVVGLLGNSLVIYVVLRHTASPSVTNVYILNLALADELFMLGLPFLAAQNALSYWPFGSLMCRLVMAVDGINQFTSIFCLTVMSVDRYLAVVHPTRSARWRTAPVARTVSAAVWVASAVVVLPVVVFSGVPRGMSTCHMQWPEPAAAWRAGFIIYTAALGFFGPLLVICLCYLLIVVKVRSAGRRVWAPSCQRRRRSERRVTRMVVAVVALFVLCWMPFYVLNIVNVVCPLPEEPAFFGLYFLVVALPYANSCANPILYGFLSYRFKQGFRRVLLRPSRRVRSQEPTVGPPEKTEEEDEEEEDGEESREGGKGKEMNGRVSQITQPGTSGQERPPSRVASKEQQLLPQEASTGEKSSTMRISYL
T2 sequence (P14416 whole entry): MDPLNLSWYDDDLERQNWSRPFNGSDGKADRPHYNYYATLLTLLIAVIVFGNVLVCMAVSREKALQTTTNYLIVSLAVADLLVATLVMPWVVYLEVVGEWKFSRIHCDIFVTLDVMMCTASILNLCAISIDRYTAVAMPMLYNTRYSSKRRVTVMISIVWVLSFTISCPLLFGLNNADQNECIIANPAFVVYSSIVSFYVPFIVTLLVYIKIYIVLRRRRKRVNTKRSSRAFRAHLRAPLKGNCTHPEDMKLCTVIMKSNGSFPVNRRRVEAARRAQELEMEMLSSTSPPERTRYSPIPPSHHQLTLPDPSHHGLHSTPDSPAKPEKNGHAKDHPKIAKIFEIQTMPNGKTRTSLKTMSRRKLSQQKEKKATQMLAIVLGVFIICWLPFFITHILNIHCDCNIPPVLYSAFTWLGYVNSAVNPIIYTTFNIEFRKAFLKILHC
T4 sequence (P30872 whole entry): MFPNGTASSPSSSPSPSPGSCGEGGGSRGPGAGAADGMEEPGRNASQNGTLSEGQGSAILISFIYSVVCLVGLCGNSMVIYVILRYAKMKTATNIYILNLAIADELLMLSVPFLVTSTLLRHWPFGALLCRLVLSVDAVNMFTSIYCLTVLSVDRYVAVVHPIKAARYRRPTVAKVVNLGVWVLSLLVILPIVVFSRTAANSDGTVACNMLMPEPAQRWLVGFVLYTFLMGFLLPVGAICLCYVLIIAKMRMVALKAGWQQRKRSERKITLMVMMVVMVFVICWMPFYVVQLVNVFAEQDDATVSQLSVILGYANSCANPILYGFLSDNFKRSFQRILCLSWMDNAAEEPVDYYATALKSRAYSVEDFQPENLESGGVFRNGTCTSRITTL
T3 sequence (P35346 whole entry): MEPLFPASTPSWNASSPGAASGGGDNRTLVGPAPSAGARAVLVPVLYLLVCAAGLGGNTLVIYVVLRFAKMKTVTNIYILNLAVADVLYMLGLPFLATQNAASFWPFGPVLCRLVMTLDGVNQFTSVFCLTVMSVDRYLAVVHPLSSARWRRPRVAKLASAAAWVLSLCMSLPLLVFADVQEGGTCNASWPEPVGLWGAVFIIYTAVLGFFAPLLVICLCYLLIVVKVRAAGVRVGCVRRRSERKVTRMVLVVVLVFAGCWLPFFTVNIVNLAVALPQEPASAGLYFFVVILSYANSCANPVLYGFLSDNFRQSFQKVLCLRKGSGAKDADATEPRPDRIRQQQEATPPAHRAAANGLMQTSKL
T1 sequence (P31391 whole entry): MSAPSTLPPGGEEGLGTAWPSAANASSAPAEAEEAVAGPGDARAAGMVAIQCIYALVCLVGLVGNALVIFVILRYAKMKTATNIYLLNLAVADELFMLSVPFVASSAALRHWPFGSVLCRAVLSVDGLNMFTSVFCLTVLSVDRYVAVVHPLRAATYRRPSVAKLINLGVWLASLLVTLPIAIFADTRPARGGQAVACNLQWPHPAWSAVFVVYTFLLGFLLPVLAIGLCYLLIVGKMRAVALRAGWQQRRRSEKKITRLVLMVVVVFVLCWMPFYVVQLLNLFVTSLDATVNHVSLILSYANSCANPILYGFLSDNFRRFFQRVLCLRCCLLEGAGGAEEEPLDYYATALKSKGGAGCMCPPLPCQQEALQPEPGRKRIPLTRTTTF
T5 sequence (P30874 whole entry): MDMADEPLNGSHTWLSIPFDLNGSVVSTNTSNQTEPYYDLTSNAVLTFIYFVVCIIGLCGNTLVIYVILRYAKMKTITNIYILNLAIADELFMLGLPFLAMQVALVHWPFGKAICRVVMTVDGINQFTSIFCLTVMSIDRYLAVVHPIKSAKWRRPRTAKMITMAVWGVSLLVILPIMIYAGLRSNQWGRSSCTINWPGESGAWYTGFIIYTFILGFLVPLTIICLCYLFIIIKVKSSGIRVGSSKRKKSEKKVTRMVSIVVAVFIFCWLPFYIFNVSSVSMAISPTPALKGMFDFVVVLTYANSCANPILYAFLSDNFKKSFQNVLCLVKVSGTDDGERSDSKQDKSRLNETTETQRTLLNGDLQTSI

Row | Compound | Ki (hSSTR4) [nM] | Ki (hDRD2 [1]) [nM] | Ki (hSSTR5) [nM] | Ki (hSSTR1) [nM] | Emax (hDRD2 [2]) [%] | Ki (hSSTR2 [3]) [nM] | improvement in EC50 and/or %Emax over Reference Compound B (hSSTR2 [4]) | Growth hormone suppressing activity compared to the parent somatostatin analogs [5] | Ki (hSSTR3) [nM] | improvement in %Emax over Reference Compound C (hSSTR2 [4])
1 | C[C@@H](O)[C@@H]1NC(=O)[C@H](CCCCN)NC(=O)[C@@H](Cc2c[nH]c3ccccc23)NC(=O)[C@H](Cc2ccncc2)NC(=O)[C@H](Cc2ccccc2)NC(=O)[C@H](CCCNC(=N)N)NC(=O)[C@H](NC[C@H](Cc2ccc(O)cc2)NC(=O)CSC[C@@H]2C[C@@H]3c4cccc5[nH]cc(c45)C[C@H]3N(C)C2)CCCCNC(=O)[C@H](Cc2ccccc2)NC1=O [Compound 4, Dop1-Tyr-psi(CH2NH)-cyclo(DLys-Arg-Phe-4Pal-DTrp-Lys-Thr-Phe)] | 93.5 ± 47.7 | 182.5 ± 1.7 | 0.92 ± 0.1 | 38.1 ± 12.5 | 106 ± 2.4 | 0.12 ± 0.01 | statistically significant improvement in EC50 and/or %Emax | enhanced Growth hormone suppressing activity | 10.6 ± 0.5 | 
2 | C[C@@H](O)[C@@H]1NC(=O)[C@H](CCCCN)NC(=O)[C@@H](Cc2c[nH]c3ccccc23)NC(=O)[C@H](Cc2ccccc2)NC(=O)[C@H](Cc2ccccc2)NC(=O)[C@H](CCCNC(=N)N)NC(=O)[C@H](NC[C@H](Cc2ccc(O)cc2)NC(=O)CSC[C@@H]2C[C@@H]3c4cccc5[nH]cc(c45)C[C@H]3N(C)C2)CCCCNC(=O)[C@H](Cc2ccc(F)cc2)NC1=O [Compound 5, Dop1-Tyr-psi(CH2NH)-cyclo(DLys-Arg-Phe-Phe-DTrp-Lys-Thr-4FPhe)] | 25.2 ± 9 | 28.5 ± 12.8 | 1.65 ± 0.8 | 9 ± 0.3 | 98.7 ± 2.3 | 0.34 ± 0.09 | statistically significant improvement in EC50 and/or %Emax | enhanced Growth hormone suppressing activity | 1.5 ± 0.3 | 
3 | C[C@@H](O)[C@@H]1NC(=O)[C@H](CCCCN)NC(=O)[C@@H](Cc2c[nH]c3ccccc23)NC(=O)[C@H](Cc2ccncc2)NC(=O)[C@H](Cc2ccccc2)NC(=O)[C@H](CCCNC(=N)N)NC(=O)[C@H](NC[C@H](CCCCNC(=O)CSC[C@@H]2C[C@@H]3c4cccc5[nH]cc(c45)C[C@H]3N(C)C2)NC(=O)CSC[C@@H]2C[C@@H]3c4cccc5[nH]cc(c45)C[C@H]3N(C)C2)CCCCNC(=O)[C@H](Cc2ccccc2)NC1=O [Compound 9, Dop1-Lys(Dop1)-psi(CH2NH)-cyclo(DLys-Arg-Phe-4Pal-DTrp-Lys-Thr-Phe)] | 24 ± 3.6 | 39.2 ± 8.3 | 1.54 ± 0.3 | 41.9 ± 21.1 | 92.8 ± 3.8 | 0.13 ± 0.06 |  |  | 4 ± 0.5 | statistically significant improvement in %Emax
